Entries after “also recorded” stand apart in the source; their conditions may differ.
Tests used:
[1] = Solubility test in C12-C15 alkyl benzoate oil (Finsolv TN); type: physicochemical; parameters: key to Solubility in Finsolv TN, dissolved amount (m/m %) 1% / Solubility in Finsolv TN, dissolved amount (m/m %) 5% / Solubility in Finsolv TN, dissolved amount (m/m %) 20% / Solubility in Finsolv TN, dissolved amount (m/m %) 50% / Solubility in Finsolv TN, dissolved amount (m/m %) 80% / Solubility in Finsolv TN, dissolved amount (m/m %) 90%: +=well-soluble; −=not soluble
Procedure: The aminobutadiene compounds according to the present invention have an optimised solubility for cosmetic oils. […] In Table 3, the solubility of compounds 4, 12 and 13 is shown at various concentrations (+=well-soluble; -=not soluble). The compounds were dissolved at 80° C. while stirring for 1 hour and cooled down to room temperature. After 24 hours the solutions were inspected for any precipitates or crystals.

[2] = Heat stability test (UV-absorption left after storage at 50° C.); type: physicochemical; details: for Heat stability: UV-absorption left after 5 days: 5 days at 50° C. in the dark; for Heat stability: UV-absorption left after 5 days / Heat stability: UV-absorption left after 50 days / Heat stability: UV-absorption left after 100 days: 1.5% in C12-C15 alkyl benzoate oil (compound 12: 5% in water), 375 nm versus sample stored at room temperature; for Heat stability: UV-absorption left after 50 days: 50 days at 50° C. in the dark; for Heat stability: UV-absorption left after 100 days: 100 days at 50° C. in the dark; for heat stability, in words: in C12-C15 alkylbenzoate oils
Procedure: Hereto, 1.5% solutions were prepared of compounds 4-11 and 13 in C12-C15 alkyl benzoate oil. […] The solutions were stored in closed vessels at 50° C. in the dark. After 5, 50 and 100 days, the UV-absorption of a diluted sample was measured at 375 nm comparative to a corresponding sample stored at room temperature. The UV-absorption left after each time span is shown in Table 4 indicated by + and − signs. ++ means >95% left, +− implies between 50-95% left, − indicates <50% left.

[3] = Spectral analysis: UV extinction value E at 375 nm; type: physicochemical; details: 1% solution in DMSO at 375 nm
From the text: The aminobutadiene compounds according to the present invention have a typical extinction value E of about 1100 to about 1500 AU/cm of a 1% solution in dimethylsulfoxide (DMSO, Sigma Aldrich ACS spectrophotometric grade) at 375 nm, which is typically the wavelength of the absorption maximum of such compounds. The exact value of E depends on the relative contribution of the core and the R-groups to the molecular weight, while the exact wavelength of the absorption maximum depends on the type of substituents. Spectra were obtained on a HP 8452A diode array spectrophotometer against a DMSO blanc.

human skin = experiment: Skin penetration test in diffusion cell; type: in vitro ADME; details: human skin, diffusion cell; for penetration through the skin (UV-analysis of collected receptor fluids), in words: 20 hrs
Procedure: The skin-penetration was evaluated based on the same method described on page 21 of WO2006/009451. FIG. 2 is a drawing of the skin penetration test equipment, wherein (1) indicates the position of the test sample (donor compound), (2) an ⅛″ OD× 1/32″ wall tubing, (3) the receptor input, (4) the receptor compartment and (5) the compound and receptor output that is subjected to analysis.
A compound 3 donor solution was prepared by dissolving 30 mg of compound 3 in 4 ml EtOH and 7 ml phosphate buffer (PBS) at pH 7.4. Compound 4, 6, 7, 8 and 9 donor solutions were prepared by dispersing 80 mg of these compounds in olive oil.
For each compound 4 pieces of human skin (Ø ca 3 cm, mostly epidermis) were applied on a dialysis membrane and mounted into the diffusion cell shown in the FIG. 2. The figure is a schematic drawing of the diffusion cell, wherein is indicated 1: donor compound, 2: receptor compartment, 3: receptor input, 4: compound and receptor output for analysis, 5: ⅛″ OD× 1/32″ wall tubing. The cells were mounted on a temperature controlling and stirring device. The temperature was kept at 37°. The receptor fluid was a PBS buffer. The receptor compartment was stirred magnetically. 400 μl of the donor solution was applied. The receptor fluid flowing at a speed of 1 ml/hr was collected into glass tubes (1 tube/2 hrs). After 20 hrs the penetration experiment was terminated.
Furthermore the skin parts were extracted with DMSO to dissolve any UV-absorber in the epidermis. The extracts were analysed by UV.

Row | Structure (SMILES) | Solubility in Finsolv TN, dissolved amount (m/m %) 1% ([1]; 1% m/m, dissolved at 80° C. for 1 hour, cooled to room temperature, inspected after 24 hours) | Solubility in Finsolv TN, dissolved amount (m/m %) 5% ([1]; 5% m/m, dissolved at 80° C. for 1 hour, cooled to room temperature, inspected after 24 hours) | Solubility in Finsolv TN, dissolved amount (m/m %) 20% ([1]; 20% m/m, dissolved at 80° C. for 1 hour, cooled to room temperature, inspected after 24 hours) | Solubility in Finsolv TN, dissolved amount (m/m %) 50% ([1]; 50% m/m, dissolved at 80° C. for 1 hour, cooled to room temperature, inspected after 24 hours) | Solubility in Finsolv TN, dissolved amount (m/m %) 80% ([1]; 80% m/m, dissolved at 80° C. for 1 hour, cooled to room temperature, inspected after 24 hours) | Solubility in Finsolv TN, dissolved amount (m/m %) 90% ([1]; 90% m/m, dissolved at 80° C. for 1 hour, cooled to room temperature, inspected after 24 hours) | solubility in C12-C15 alkyl benzoate oil (Finsolv TN), in words ([1]; all concentrations) | Heat stability: UV-absorption left after 5 days [2] | Heat stability: UV-absorption left after 50 days [2] | Heat stability: UV-absorption left after 100 days [2] | heat stability, in words [2] | extinction E [3] [au/cm] | penetration into or through the skin (UV analysis of DMSO skin extracts), in words (human skin) | penetration through the skin (UV-analysis of collected receptor fluids), in words (human skin)
1 | CCCCCCCCOC(=O)C(=CC=CN(CCCCCCN(C=CC=C(C(=O)OCCCCCCCC)S(=O)(=O)c1ccccc1)Cc1ccccc1)CCCCCCN(C=CC=C(C(=O)OCCCCCCCC)S(=O)(=O)c1ccccc1)Cc1ccccc1)S(=O)(=O)c1ccccc1 [Compound 4] | + | + | + | + | + | + | very well soluble at all concentrations | ++ (++ means >95% left) | ++ (++ means >95% left) | ++ (++ means >95% left) | very heat stable | 1400 | do not penetrate into or through the skin | no penetration
2 | CCCCCCCCOC(=O)C(=CC=CN(CCN(C=CC=C(C(=O)OCCCCCCCC)S(=O)(=O)c1ccccc1)Cc1ccccc1)CCN(C=CC=C(C(=O)OCCCCCCCC)S(=O)(=O)c1ccccc1)Cc1ccccc1)S(=O)(=O)c1ccccc1 [Compound 9] |  |  |  |  |  |  |  | ++ (++ means >95% left) | ++ (++ means >95% left) | ++ (++ means >95% left) | very heat stable; also recorded: good heat stability |  | do not penetrate into or through the skin | no penetration
